The values that follow come from patent publication US12637457B2, “Salt form and crystal form of JAK inhibitor, preparation method therefor, and use thereof” (SHANGHAI FUDAN-ZHANGJIANG BIO-PHARMACEUTICAL CO., LTD., priority 2020, dated 2026).

One may read the IC50 as the point on the concentration scale where inhibition reaches its midpoint. High values mean weaker potency, low ones greater potency. For orientation: Cmax means the highest concentration seen after dosing. Broadly, the AUC(0-t) is the area under the concentration-time curve up to a stated or last time point. Low values mean less exposure, high ones more exposure.

For one data set, the target named is T1, JAK1 (Homo sapiens, UniProt P23458).
T1 construct: purchased Invitrogen PV4774
Kind of data set: HTRF in vitro enzyme activity biochemical assay, JAK1. The settings on record: 1 mM ATP, 500 ng/mL JAK1. Here is the method: (§1) Then, the concentration of the compound diluent was further diluted to 2.5-fold of the final test concentration with the kinase reaction buffer to obtain a compound solution to be tested.
(§2) The enzymatic reaction was initiated by adding a mixture of 2 μL of substrate and 2 μL of ATP prepared in kinase reaction buffer. […] The percentage of inhibition was calculated according to the formula: percentage of inhibition=100%−ratio value of a treated compound/ratio value of a treated DMSO carrier (DMSO carrier was a blank control group without drugs).
(§3) A dose-response curve was generated, and IC50 was calculated by non-linear S-shaped curve fitting using GraphPad Prism software.
On the technique in general: Time-resolved FRET reads energy transfer from a long-lived donor to a nearby acceptor.

The next data set concerns the target T2, JAK2 (Homo sapiens, UniProt O60674).
T2 construct: purchased Carna Biosciences, Inc. 08-045
Kind of data set: HTRF in vitro enzyme activity biochemical assay, JAK2. The settings on record: 1 mM ATP, 6 ng/mL JAK2. As for the experimental part: as §1, §2, §3

Another data set has as its target T3, JAK3 (Homo sapiens, UniProt P52333).
T3 construct: purchased Carna Biosciences, Inc. 08-046
Put plainly: HTRF in vitro enzyme activity biochemical assay, JAK3. The settings on record: 1 mM ATP, 37 ng/mL JAK3. Here is the method:
as §1, §2, §3

The target in the next data set is T4, TYK2 (Homo sapiens, UniProt P29597).
T4 construct: purchased Carna Biosciences, Inc. 08-147
T4 sequence (P29597 871-1187 limits assumed): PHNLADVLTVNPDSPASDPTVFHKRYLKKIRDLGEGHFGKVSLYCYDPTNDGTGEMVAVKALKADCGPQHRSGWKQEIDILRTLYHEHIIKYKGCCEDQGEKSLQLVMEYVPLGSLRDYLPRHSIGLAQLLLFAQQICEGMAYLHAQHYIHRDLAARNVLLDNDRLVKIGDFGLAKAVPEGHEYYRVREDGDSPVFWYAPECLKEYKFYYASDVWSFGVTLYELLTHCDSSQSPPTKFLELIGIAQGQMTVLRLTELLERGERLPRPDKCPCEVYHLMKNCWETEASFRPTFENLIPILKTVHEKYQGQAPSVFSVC
Kind of data set: HTRF in vitro enzyme activity biochemical assay, TYK2. The settings on record: 1 mM ATP, 100 ng/mL TYK2. As for the experimental part:
as §1, §2, §3

Data set [1] is described as follows: Solubility test in common solvents (visual dissolution). The settings on record: 25° C.±5° C., observed within 30 minutes. Format: physicochemical. As for the experimental part:
The sample that has been ground into fine powder was weighed and added to a certain volume of solvent (ambient temperature: 25° C.±5° C.), shaken strongly for 30 seconds every 5 minutes, and the dissolution was observed within 30 minutes. If there were no visually visible solute particles or droplets, the sample was regarded as completely dissolved. According to this method, the dissolution of crystal form A of the hydrochloride hydrate of the compound shown in formula I and the free base form of the compound shown in formula I in common solvents was observed, and the results are shown in Table 3.

Data set [2] is described as follows: Stability test in stable chamber (temperature and humidity). Format: physicochemical. The settings on record: for Content of compound shown in formula I: HPLC. As for the experimental part:
Whether the temperature and humidity have an impact on the stability of the crystal form A of the hydrochloride hydrate of the compound shown in formula I was tested: […]

Data set [3] in a line: Comparison of thermodynamic stability of crystal forms in saturated ethanol/water solution. The settings on record: ethanol/water 9:1 saturated solution, 50° C., stirred 24 hours. Format: physicochemical. As for the experimental part:
Crystal form A, crystal form E and crystal form F were respectively dissolved in a mixed solvent of ethanol/water (volume ratio=9:1) to prepare a saturated solution. The saturated solution was heated to 50° C., and 10 mg of crystal form A, crystal form E and crystal form F were respectively added with stirring. The mixture was kept at 50° C., stirred for 24 hours, then filtered, and the XRPD of the resulting crystals was respectively determined (XRPD patterns of crystals precipitated by adding crystal forms A, E and F are shown in FIGS. 10, 11 and 12, respectively).

A further data set in a line: Single dose PK study. Format: in vivo. The settings on record: female SD rats, single oral dose 3 mg/kg, 0.5% CMC-Na suspension, plasma. As for the experimental part: Two groups of SD rats (3 females in each group) were given a single oral dose of 3 mg/kg free base of the compound shown in formula I and a single oral dose of 3 mg/kg crystal form A of hydrochloride hydrate of the compound shown in formula I, respectively. The drug was administered as a 0.5% CMC-Na suspension. Samples were taken at different times until 24 hours, and the drug concentration of the compound shown in formula I in plasma was analyzed by LC-MS/MS method, and the final calculation results are shown in Table 8.
Chromatographic Conditions of LC-MS/MS Method for Compound Shown in Formula I:
• instrument model, SHIMADZU LC-30AD liquid phase system; chromatographic column, ACQUITY UPLC® BEH C18 (2.1×50 mm, 1.7 μm); column temperature, 40° C.; injection volume, 1 μL; flow rate of 0.6 mL/min; run time of 6 min; • the mobile phase gradient settings are shown in Table 5.
Instrument model, AB SCIEX TRIPLE QUAD 6500 mass spectrometer; ion source, electrospray (ESI); ionization mode, positive ion scanning; multi-ion (MRM) ion pairs are shown in Table 6; instrument parameters are shown in Table 7.

A short description of another data set: Hygroscopicity study. Format: physicochemical. The settings on record: 25° C./75%-RH for 5 days.
[4] abbreviates: 40° C./60%-RH and 25° C./75%-RH, after 30 days.
Setting [5] is: listed as Free base of compound shown in formula I.

Read-outs that look alike come from different tables or passages of the source.

T2 sequence (O60674 826-1132 limits assumed): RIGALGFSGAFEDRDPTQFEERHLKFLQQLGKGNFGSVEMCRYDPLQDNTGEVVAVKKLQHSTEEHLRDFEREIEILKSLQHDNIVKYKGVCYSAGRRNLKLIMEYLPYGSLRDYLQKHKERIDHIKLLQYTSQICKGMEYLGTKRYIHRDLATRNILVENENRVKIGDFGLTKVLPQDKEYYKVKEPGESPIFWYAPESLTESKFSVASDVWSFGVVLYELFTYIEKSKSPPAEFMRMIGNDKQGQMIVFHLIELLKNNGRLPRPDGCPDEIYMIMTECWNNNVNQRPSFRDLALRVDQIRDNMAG
T3 sequence (P52333 795-1124 limits assumed): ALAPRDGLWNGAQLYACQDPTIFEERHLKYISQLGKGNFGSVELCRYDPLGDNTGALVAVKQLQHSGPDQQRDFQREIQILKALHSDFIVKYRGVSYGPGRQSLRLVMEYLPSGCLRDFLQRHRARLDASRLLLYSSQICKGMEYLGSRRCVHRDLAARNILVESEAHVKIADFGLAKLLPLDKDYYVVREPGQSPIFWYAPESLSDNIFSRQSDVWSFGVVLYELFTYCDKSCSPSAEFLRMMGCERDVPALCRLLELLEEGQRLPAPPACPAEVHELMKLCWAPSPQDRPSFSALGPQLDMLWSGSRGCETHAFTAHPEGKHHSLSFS
T1 sequence (P23458 866-1154 limits assumed): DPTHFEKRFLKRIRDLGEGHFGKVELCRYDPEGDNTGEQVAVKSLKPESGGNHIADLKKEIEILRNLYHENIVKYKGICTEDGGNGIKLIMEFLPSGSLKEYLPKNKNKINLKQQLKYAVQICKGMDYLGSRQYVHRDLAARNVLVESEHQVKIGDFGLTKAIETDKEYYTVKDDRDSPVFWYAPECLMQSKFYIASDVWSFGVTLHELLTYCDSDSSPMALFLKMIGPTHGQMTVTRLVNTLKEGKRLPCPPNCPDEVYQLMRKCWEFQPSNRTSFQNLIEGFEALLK

As for `O=C(Nc1cn2c(-c3ccc(CN4CCS(=O)(=O)CC4)cc3F)cccc2n1)C1CC1` [Crystal form A], the IC50 came to 145 nM against JAK1, 462 nM against JAK2, 5520 nM against JAK3 and 653 nM against TYK2. For the same molecule, in [1], the Solubility in ethanol entry is “Soluble”. The Solubility in methanol result in data set [1] is on record as “Very soluble”. Moreover, in data set [1], the “Solubility in simulated gastric juice” value is “Sparingly soluble”. In [1], the Solubility in water result was “Soluble”. In addition, in data set [2] (setting [4]), the “Change in XRPD compared with initial crystal form” value is recorded as “no significant change”. The “Change in appearance compared with initial crystal form” value in data set [2] (setting [4]) was “no significant change”. For the same molecule, the “Content of compound shown in formula I” value in data set [2] (initial) came out at 99.901%; in data set [2] (placed at 25° C./75%-RH for 30 days), 99.899%; in data set [2] (placed at 40° C./75%-RH for 30 days) it was 99.905%. In [3], the “Crystal form of the solid after stirring in saturated solution (XRPD)” value was “still crystal form A”. In addition, the Cmax in the data set “Single dose PK study” was 456 ng/mL. This molecule also showed an AUClast in “Single dose PK study” (up to 24 hours) of 1390 ng·h/mL. For the same molecule, the Hygroscopic weight gain in “Hygroscopicity study” was 2.4%.
For the molecule `O=C(Nc1cn2c(-c3ccc(CN4CCS(=O)(=O)CC4)cc3F)cccc2n1)C1CC1` [Crystal form C], the Hygroscopic weight gain in “Hygroscopicity study” is recorded as 6.1%.
The same measure, in the same setting: the value for `O=C(Nc1cn2c(-c3ccc(CN4CCS(=O)(=O)CC4)cc3F)cccc2n1)C1CC1` [Crystal form D] was 8.1%.
As for `O=C(Nc1cn2c(-c3ccc(CN4CCS(=O)(=O)CC4)cc3F)cccc2n1)C1CC1` [Crystal form E], the “Crystal form of the solid after stirring in saturated solution (XRPD)” value in data set [3] is “transformed into crystal form A”. Further, in “Hygroscopicity study”, the Hygroscopic weight gain is reported as 5.3%.
Taken in the same sequence, the figures for `O=C(Nc1cn2c(-c3ccc(CN4CCS(=O)(=O)CC4)cc3F)cccc2n1)C1CC1` [Crystal form F] were “transformed into crystal form A” and 4.9%.
As to `O=C(Nc1cn2c(-c3ccc(CN4CCS(=O)(=O)CC4)cc3F)cccc2n1)C1CC1` [Free base], in data set [1] (setting [5]), the Solubility in ethanol result was “Slightly soluble”, the Solubility in methanol result is “Slightly soluble”, the “Solubility in simulated gastric juice” value is given as “Insoluble” and the Solubility in water entry is recorded as “Very slightly soluble”. The Cmax in the data set “Single dose PK study” (female, SD, rat, po, 3 mg/kg, read-out: Cmax) was 352 ng/mL. In the data set “Single dose PK study” (female, SD, rat, po, 3 mg/kg, up to 24 hours), the AUC(0-t) turned out to be 987 ng·h/mL.
